Experimental data reported in US20220290237A1, “METHOD FOR PREDICTING THE RESPONSE OF ANTIPSYCHOTIC DRUGS” (INSERM (INSTITUT NATIONAL DE LA SANTÉ ET DE LA RECHERCHE …, priority 2019, published 2022).

What was measured:
[1] = tested on: total RNA from blood samples; assay: qRT-PCR replication of expression changes after amisulpride treatment in 24 independent subjects; type: in vivo, human; conditions: 4 weeks amisulpride
Description: Total RNA was extracted from blood samples, collected in PAXgene Blood RNA tubes, with the PAXgene Blood miRNA Kit (QIAGEN GmbH, Hilden, Germany) using a standard protocol on QlAcube robot (QIAGEN). A DNase digestion procedure was added after extraction. Total RNA was purified using the RNA Clean & Concentrator™-5 kit following the manufacturer's instructions (Zymo Research Corp., Irvine, USA). RNA quantification was performed on a NanoDrop™ 8000 spectrophotometer, in duplicate. The quality and integrity of the RNA samples were assessed using an Agilent Bioanalyzer 2100 and the RNA6000 Nano Labchip kit (Agilent Technologies). Only samples with an RNA integrity number (RIN) higher than 7 were selected. Three hundred and seventy-six RNA samples fulfilled quality control criteria for RNA-seq analyses, corresponding to two RNA samples (one at inclusion and one after 4 weeks of treatment) for 188 subjects. Forty-eight additional RNAs were available for replication studies, in 24 independent subjects.
Five-hundred nanograms of total RNA was reverse-transcribed using the High-Capacity cDNA Reverse Transcription kit following standard protocol (Thermo Fisher Scientific, Waltham, Mass., U.S.A.). Mixtures of the cDNAs and the TaqMan Universal PCR Master Mix were further loaded in the 384-well low density TaqMan array microfluidic cards (Thermo Fisher Scientific). Real-time PCR reactions were then carried out in an ABI Prism 7900HT sequence detection system (Thermo Fisher Scientific) using manufacturer's instructions. Each assay was carried out in duplicate and threshold cycle (Ct) values were automatically calculated by the SDS 2.2 software (Thermo Fisher Scientific), after having manually set the analysis threshold. Two reference genes (18S, and GUSB) with various expression levels were included in the analyses to perform a relative RNA quantification, using the most suitable reference gene.
For the qRT-PCR analysis, ΔCt values of each gene of interest were calculated before and after treatment and then normalized by subtracting the ΔCt values of the reference gene to generate ΔΔCt values. To select genes with significant expression changes after treatment, the medians of fold changes (2-ΔΔCt) were subsequently compared to a reference (Me=1) using Wilcoxon Rank Sum Test, and an adjusted p-values below 0.1 was considered to be significant.
To validate these DEGs, we used qRT-PCR in 24 independent subjects from the OPTiMiSE cohort, who were not included in the RNA-seq analyses and with a more than 20% improvement in total PANSS score after treatment (FIG. 1). We selected only brain-expressed protein-coding genes that were differentially expressed after treatment in good responders only. In addition, we restricted our selection to genes for which the expression change was correlated with symptom improvement (Table 1). […] In addition, two genes (P4HA2 and TRPC6) were removed from replication studies, because they were not detectable by qRT-PCR. Eleven genes were thus tested in the replication sample.

[2] = Clinical response (total PANSS score change) over 4 weeks of amisulpride, OPTiMiSE first episode psychosis; type: in vivo, human
Excerpt: The cohort analysed in this study was obtained from the OPTiMiSE clinical trial (http://www.optimisetrial.eu) (29). After providing written informed consent, 491 patients with a first episode psychosis were included and 453 started medication. All patients were diagnosed with schizophrenia, schizophreniform disorder or schizoaffective disorder according to the Diagnostic and Statistical Manual of Mental Disorders, Fourth Edition (DSM-IV) and confirmed on the basis of the Mini International Neuropsychiatric Interview Plus (M.I.N.I. Plus) (30) (table 4). At baseline, patients were medication-naïve or minimally-treated (any antipsychotic medication used for […] 2 weeks in the previous year or for a total of 6 weeks in their lifetime) and were ill for no longer than 2 years. Only subjects involved in the single-treatment arm (phase 1) of the trial were considered for this study (29). All patients were treated for 4 weeks with amisulpride (200-800 mg/day orally). At the end of the 4-week treatment, the blood concentration of antipsychotic used has been determined. This measurement provided a reliable indication of the treatment compliance of individual patients.
A clinical response to treatment can be defined according to many criteria. […] Note that good responders were slightly older than poor responders with a lower duration of untreated psychosis and more positive symptoms (data not shown).

[3] = admixture model of total PANSS score change over 4 weeks of treatment, 200-800 mg/day orally
[4] = of 188 subjects, 4 weeks of treatment

CCN1CCCC1CNC(=O)c1cc(S(=O)(=O)CC)c(N)cc1OC (centres unmarked) [amisulpride, 4-amino-N-((1-ethyl-2-pyrrolidinyl)methyl)-5-(etgylsulfonyl)-2-methoxybenzamide]
FC, fold-change at week 4 relative to the expression level at inclusion: ACSL5 ([1]; ACSL5, replication sample (n = 24)): 1.06
FC, fold-change at week 4 relative to the expression level at inclusion: ALPL ([1]; ALPL, replication sample (n = 24)): 0.77
FC, fold-change at week 4 relative to the expression level at inclusion: CA4 ([1]; CA4, replication sample (n = 24)): 0.71
FC, fold-change at week 4 relative to the expression level at inclusion: DGAT2 ([1]; DGAT2, replication sample (n = 24)): 0.73
FC, fold-change at week 4 relative to the expression level at inclusion: DHRS13 ([1]; DHRS13, replication sample (n = 24)): 0.82
FC, fold-change at week 4 relative to the expression level at inclusion: GALNT14 ([1]; GALNT14, replication sample (n = 24)): 0.76
FC, fold-change at week 4 relative to the expression level at inclusion: HOMER3 ([1]; HOMER3, replication sample (n = 24)): 0.84
FC, fold-change at week 4 relative to the expression level at inclusion: KAZN ([1]; KAZN, replication sample (n = 24)): 0.67
FC, fold-change at week 4 relative to the expression level at inclusion: KIAA0319 ([1]; KIAA0319, replication sample (n = 24)): 0.77
FC, fold-change at week 4 relative to the expression level at inclusion: SLC4A4 ([1]; SLC4A4, replication sample (n = 24)): 0.84
FC, fold-change at week 4 relative to the expression level at inclusion: WLS ([1]; WLS, replication sample (n = 24)): 0.85
proportion of good responders [2, 3]: 56%
proportion of poor responders [2, 3]: 44%
mean reduction of total PANSS score ([2]; good responders subpopulation of the admixture model, 4 weeks of treatment): 36.3%
patients with a less than 20% reduction in total PANSS score [2, 4]: 75 patients
patients with a more than 20% reduction in total PANSS score [2, 4]: 113 patients
mean PANSS total reduction ([2]; poor responders subpopulation of the admixture model, 4 weeks of treatment): 13.0%
